Laboratory results: publication PMC5193068, “Application of Mice Humanized for CYP2D6 to the Study of Tamoxifen Metabolism and Drug–Drug Interaction with Antidepressants” (Drug Metabolism and Disposition, 2017)
“And” between values parts separate entries of the source, which are not always exact repeats. Equal values may be shown once. Read-outs that look alike come from different tables or passages of the source.

Experiments:
[1] = design: method as in gsk-clinicalstudyregister.com study 29060/474; details: patients receiving 40 mg/d paroxetine; ref gsk-clinicalstudyregister.com study 29060/474; cited from earlier work
[2] = system: murine plasma proteins; design: method as in van Harten, 1993; Qin et al., 2016; details: mouse plasma; ref van Harten, 1993; Qin et al., 2016; cited from earlier work
[3] = target: T1, CYP2D6 (Homo sapiens, UniProt P10635); details: read-out: Ki for inhibition of dextromethorphan O-demethylation; HLMs; ref Bertelsen et al. (2003); cited from earlier work
T1 sequence (P10635 whole entry): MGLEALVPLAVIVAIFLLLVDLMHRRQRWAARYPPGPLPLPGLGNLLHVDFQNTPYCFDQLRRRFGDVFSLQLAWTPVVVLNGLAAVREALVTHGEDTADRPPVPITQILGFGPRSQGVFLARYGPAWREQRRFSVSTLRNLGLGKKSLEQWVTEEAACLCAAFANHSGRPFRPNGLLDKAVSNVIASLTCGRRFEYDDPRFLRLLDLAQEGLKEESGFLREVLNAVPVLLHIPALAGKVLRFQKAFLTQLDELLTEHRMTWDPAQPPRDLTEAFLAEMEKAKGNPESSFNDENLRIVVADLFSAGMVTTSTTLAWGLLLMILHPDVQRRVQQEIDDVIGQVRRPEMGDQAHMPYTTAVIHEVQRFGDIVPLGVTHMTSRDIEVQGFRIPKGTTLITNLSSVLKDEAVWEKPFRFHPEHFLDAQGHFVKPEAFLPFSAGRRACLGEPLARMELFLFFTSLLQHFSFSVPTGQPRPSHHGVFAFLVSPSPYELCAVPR

[4] = system: E0771 cells; assay: Estradiol dependence of E0771 cell growth in vitro; format: cell-based, mouse; details: Supplemental Fig. 2
[5] = target: T1, CYP2D6; assay: biochemical
Method: (§1) All in vitro analyses were carried out in 100 mM potassium phosphate buffer, pH 7.4, containing 3.3 mM MgCl2, with agitation at 400 rpm at 37°C on a thermoshaker. All samples were handled in amber tubes under conditions of subdued light for the duration of the procedure. […] All subsequent assays were carried out under the same conditions, irrespective of the microsome source, with 5 µM N-desmethyltamoxifen (NDT) as substrate. […] Solvent (methanol) concentrations were 0.2% or lower in all incubations.
(§2) Spearman’s rank correlations and inhibition parameters of ADs were calculated using GraphPad Prism software (version 6; GraphPad Inc., La Jolla, CA).

[6] = Endoxifen formation from NDT in Cyp2dKO mouse liver microsomes; format: in vitro ADME; details: 5 µM NDT as substrate
Method: as §1

[7] = system: CYP1A2; assay: Correlation of NDT hydroxylation with P450 probe substrate metabolism in panel of 13 HLMs (1A2); format: in vitro ADME, human; details: 1A2, Phenacetin O-deethylation
Method: as §1, §2

[8] = system: CYP2A6; assay: Correlation of NDT hydroxylation with P450 probe substrate metabolism in panel of 13 HLMs (2A6); format: in vitro ADME, human; details: 2A6, Coumarin 7-hydroxylation
Method: as §1, §2

[9] = system: CYP2B6; assay: Correlation of NDT hydroxylation with P450 probe substrate metabolism in panel of 13 HLMs (2B6); format: in vitro ADME, human; details: 2B6, S-mephenytoin N-demethylation
Method: as §1, §2

[10] = system: CYP2C8; assay: Correlation of NDT hydroxylation with P450 probe substrate metabolism in panel of 13 HLMs (2C8); format: in vitro ADME, human; details: 2C8, Paclitaxel 6α-hydroxylation
Method: as §1, §2

[11] = system: CYP2C9; assay: Correlation of NDT hydroxylation with P450 probe substrate metabolism in panel of 13 HLMs (2C9); format: in vitro ADME, human; details: 2C9, Diclofenac 4′-hydroxylation
Method: (§3) All in vitro analyses were carried out in 100 mM potassium phosphate buffer, pH 7.4, containing 3.3 mM MgCl2, with agitation at 400 rpm at 37°C on a thermoshaker. All samples were handled in amber tubes under conditions of subdued light for the duration of the procedure. […] Assays to determine the apparent kinetic parameters of endoxifen formation in hCYP2D6 mouse liver microsomes (MLMs) were performed in triplicate under conditions of linearity for time (6 minutes) and hCYP2D6 protein (0.0625 mg/ml). All subsequent assays were carried out under the same conditions, irrespective of the microsome source, with 5 µM N-desmethyltamoxifen (NDT) as substrate. […] Solvent (methanol) concentrations were 0.2% or lower in all incubations.
as §2

[12] = system: CYP2C19; assay: Correlation of NDT hydroxylation with P450 probe substrate metabolism in panel of 13 HLMs (2C19); format: in vitro ADME, human; details: 2C19, S-mephenytoin 4′-hydroxylation
Method: as §3, §2

[13] = system: CYP2E1; assay: Correlation of NDT hydroxylation with P450 probe substrate metabolism in panel of 13 HLMs (2E1); format: in vitro ADME, human; details: 2E1, Chlorzoxazone 6-hydroxylation
Method: as §3, §2

[14] = system: CYP3A4; assay: Correlation of NDT hydroxylation with P450 probe substrate metabolism in panel of 13 HLMs (3A4); format: in vitro ADME, human; details: 3A4, Testosterone 6β-hydroxylation
Method: as §1, §2

[15] = Preliminary single oral dose of tamoxifen in hCYP2D6 mice, blood metabolite concentrations; format: in vivo; details: single 15-mg/kg oral dose of tamoxifen; for Cmax: hCYP2D6 (CYP2D6-humanized mouse line), mouse, blood, preliminary, data not shown
[16] = Preliminary tolerability of single doses of NDT in mice; format: in vivo; details: single doses of NDT required to achieve about 200 ng/ml, data not shown
[17] = design: method as in Chang et al., 2016; details: hPXR/hCAR/h3A4/3A7/2D6 mice, single dose of 20 mg/kg tamoxifen; ref Chang et al., 2016; cited from earlier work
[18] = 2013, Jager et al., 2014, cited from earlier work
[19] = target: T1, CYP2D6; assay: Apparent kinetic parameters of endoxifen formation from NDT in hCYP2D6 mouse liver microsomes; format: in vitro ADME; design: Assays to determine the apparent kinetic parameters of endoxifen formation in hCYP2D6 mouse liver microsomes (MLMs) were performed in triplicate; tissue Taconic (animals); host or cells: liver microsomes pooled from four hCYP2D6 (CYP2D6-humanized, murine Cyp2d deleted) mice; details: hCYP2D6 MLMs 0.0625 mg/ml, 6 min, substrate inhibition model
Method: as §3, §2

[20] = target: T1, CYP2D6; assay: Correlation of NDT hydroxylation with P450 probe substrate metabolism in panel of 13 HLMs (2D6); format: in vitro ADME; design: Assays to determine the apparent kinetic parameters of endoxifen formation in hCYP2D6 mouse liver microsomes (MLMs) were performed in triplicate; tissue Taconic (animals); host or cells: liver microsomes pooled from four hCYP2D6 (CYP2D6-humanized, murine Cyp2d deleted) mice; details: 2D6, Bufuralol 1′-hydroxylation
Method: as §3, §2

[21] = target: T1, CYP2D6; design: Assays to determine the apparent kinetic parameters of endoxifen formation in hCYP2D6 mouse liver microsomes (MLMs) were performed in triplicate; tissue Taconic (animals); host or cells: liver microsomes pooled from four hCYP2D6 (CYP2D6-humanized, murine Cyp2d deleted) mice; method as in Desta et al. (2004); details: two individual HLM preparations; ref Desta et al. (2004); read-out: Km (endoxifen formation); cited from earlier work
[22] = target: T1, CYP2D6; details: female, hCYP2D6 (mice humanized for CYP2D6), mouse, in vivo
Method: All animal work was carried out on 8- to 12-week-old female mice. […] NDT was suspended in corn oil at 2 mg/ml for oral administration at 10 mg/kg (5 µl/g body weight). For sample collection for pharmacokinetic (PK) analysis, 10 µl whole blood was withdrawn from the tail vein at the indicated time points. Samples were immediately added to a tube containing heparin solution (10 µl, 15 IU/ml) and stored at −20°C until processing.
In vivo PK samples were thawed by the addition of 70 µl acetonitrile containing the internal standard (tamoxifen-d5 at 0.2 µg/ml). After incubation on ice for 10 minutes, in vivo and in vitro samples were vortexed (5 seconds) and centrifuged for 10 minutes at 16,000g. The supernatant was added to 96-well plates for liquid chromatography (LC)–tandem mass spectrometry (MS/MS).
Analysis of in vitro incubation and in vivo blood PK samples was carried out on a Waters Acquity ultra-performance LC system and a Micromass Quattro Premier mass spectrometer (both Micromass, Manchester, UK). […] Acquired data were analyzed in QuanLynx (Waters, Milford, MA) relative to analyte standard curves spanning the range of concentrations under study.
Plasma levels of both of these compounds, and of endoxifen, were monitored over the following 48-hour period.

[23] = system: estrogen receptor (ER); design: method as in Johnson et al., 2004; details: ref Johnson et al., 2004; cited from earlier work

In the case of `Fc1ccc([C@@H]2CCNC[C@H]2COc2ccc3c(c2)OCO3)cc1` [paroxetine], the “steady-state Cmax” value [1] is given as “approximately 150 ng/ml”, the “binding with murine plasma proteins” value [2] is given as > 96% and the Ki [3] is given as 360 nM.

For `C[C@]12CC[C@@H]3c4ccc(O)cc4CC[C@H]3[C@@H]1CC[C@@H]2O` [estradiol], the “dependence of E0771 cell growth on estradiol” value [4] was “no dependence whatsoever”.

Compound `CN(C)CCC=C1c2ccccc2CCc2ccccc21` [amitriptyline] has a Ki [5] of 720 nM.

With `CC/C(=C(\c1ccccc1)c1ccc(OCCNC)cc1)c1ccccc1` [NDT, N-desmethyltamoxifen] the “endoxifen formation by Cyp2dKO liver microsomes” value [6] was “did not produce detectable levels”, the “SRCC with NDT Hydroxylation” value [7] was −0.289 and the “SRCC with NDT Hydroxylation” value [8] was 0.161. The “SRCC with NDT Hydroxylation” value [9] was 0.572, the “SRCC with NDT Hydroxylation” value [10] was 0.380 and the “SRCC with NDT Hydroxylation” value [11] was 0.526. For the same compound, the “SRCC with NDT Hydroxylation” value [12] was −0.220, the “SRCC with NDT Hydroxylation” value [13] was 0.311 and the “SRCC with NDT Hydroxylation” value [14] was −0.005. For the same compound, the Cmax [15] was 86 ng/mL, the “tolerability of single doses” value [16] was “not well tolerated by all animals” and the Cmax [17] was 46 ng/mL. The “mean steady-state concentration in patient serum” value ([18]; patients on tamoxifen, ref Stearns et al., 2003, Madlensky et al., 2011, Lien et al.) was “approximately 200 ng/ml”, the “average blood plasma steady-state Cmax” value ([18]; patients receiving 20 mg tamoxifen per day, ref Lien et al.) was “approximately 200 ng/ml” and the “KS1 (apparent, endoxifen formation from NDT)” value [19] was 5.1 ± 0.4 µM. For the same compound, the “KS2 (apparent, endoxifen formation from NDT)” value [19] was 3.9 ± 0.3 µM, the “SRCC with NDT Hydroxylation” value [20] was 0.698 and the Km [21] was 4.5 µM and 5.9 µM.

In the case of `CC/C(=C(\c1ccc(O)cc1)c1ccc(OCCNC)cc1)c1ccccc1` [endoxifen, 4-hydroxy-N-desmethyltamoxifen], the “endoxifen levels in hCYP2D6 mice relative to human subjects” value [22] is listed as 2.5-13 fold and the “potency as estrogen receptor (ER) antagonist relative to the parent compound (tamoxifen)” value [23] is listed as “up to 100 times”.

In the case of `CC/C(=C(\c1ccc(O)cc1)c1ccc(OCCN(C)C)cc1)c1ccccc1` [4-HT, 4-hydroxytamoxifen], the Cmax [15] is given as 235 ng/mL, the “blood concentration of 4-HT relative to NDT” value [15] is given as 2.7 fold and the “4-HT levels relative to NDT” value [17] is given as 5.4 fold. For the same compound, the Cmax [17] was 248 ng/mL and the “potency as estrogen receptor (ER) antagonist relative to the parent compound (tamoxifen)” value [23] was “up to 100 times”.
